Experimental data published in publication PMC12652692, “Synthesis and In Vitro Anticancer Evaluation of Novel Phosphonium Derivatives of Chrysin” (International Journal of Molecular Sciences, 2025).

Legend:
PC-3 = assay: NCI60 one-dose screen; type: cell-based, human; conditions: PC-3, 10 μM
Procedure: (§1) The screening results are presented in the Supplementary Materials (Table S1), where the cytotoxicity was determined for the 10 µM concentration. […] The negative numbers indicate significant decreases in the cell number. […] Compared to the reference chrysin (2), all phosphonium hybrids (3a–h) had significant antiproliferative activities. […] At the same time, it should be noted that more than 60% average reduction was also obtained in the case of the other examined conjugates (3a–h).
(§2) A detailed description of the NCI screening procedures, including the one-dose and five-dose tests, can be found in the Supplementary Materials, on the website of NCI [39], and in our previous work.
(§3) A detailed description of the NCI screening procedures can also be found on the website of NCI [39], and in our […]
(§4) All candidates were examined at first at a single high dose (10 μM) in the full NCI60 cell panel. The value reported for the one-dose test is growth relative to the no-drug control and relative to the time zero number of cells. This made possible the disclosure of both growth inhibition (numbers between 0 and 100) and lethality (numbers less than 0). For example, a value of 100 means no growth inhibition. A value of 20 would mean 80% growth inhibition. A value of 0 means no net growth over the course of the analysis. A value of −20 would mean 20% lethality. A value of −100 means all cells are dead. […]
(§5) concentration levels. The human tumor cell lines of the cancer screening panel were grown in RPMI 1640 medium containing 5% fetal bovine serum and 2 mM l-glutamine. Characteristically, cells were injected in 96-well microtiter plates in 0.1 mL at plating densities ranging from 5000 to 40,000 cells/well, depending on the doubling time of individual cell lines. After cell inoculation, the microtiter plates were incubated at 37 °C, 5% carbon dioxide, 95% air, and 100% relative humidity for 24 hours before the addition of tested compounds. After 24 hours, 2 plates of each cell line were fixed in situ with Cl3COOH (TCA), to represent a measurement of the cell population for each cell line at the time of drug addition (tz). Tested compounds were solubilized in DMSO at 400-fold the desired final maximum test concentration and stored frozen before application. In the course of the drug addition, an aliquot of frozen concentrate was thawed and diluted to twice the desired final maximum test concentration with a complete medium containing 50 μg mL−1 gentamicin. Additional four, 10-fold or ½ log serial dilutions were produced to furnish a total of five drug concentrations plus control. Aliquots of 0.1 mL of these different drug dilutions were added to the appropriate microtiter wells already containing 0.1 mL of medium, resulting in the required final drug concentrations.
(§6) Following drug addition, the plates were incubated at 37 °C, 5% carbon dioxide, 95% air, and 100% relative humidity for an additional 48 hours. For adherent cells, the test was finished by the addition of cold Cl3COOH. Cells were fixed in situ by the addition of 50 μL of cold 50% (w/v) Cl3COOH, and incubated at 4 °C for 1 hour. The supernatant was discarded, and the plates were washed with H2O (5×) and dried in air. Sulforhodamine B (SRB) solution (0.1 mL) at 0.4% (w/v) in 1% CH3COOH was added to each well, and plates were incubated at RT for 10 min. After staining, the unbound dye was removed by washing five times with 1% CH3COOH, and the plates were dried in the air. The bound stain is afterward solubilized with a 10 mM trizma base, and the absorbance is read on an automated plate reader at λ = 515 nm. Utilizing the seven absorbance measurements [time zero (tz), control growth (c), and test growth in the presence of the drug at the five concentration levels (ti)], the percentage growth was determined at each of the drug concentration levels. Growth inhibition (%) was calculated as:
(§7) [(ti − tz)/(c − tz)] × 100, for concentrations where ti ≥ tz (1) […]

SR = assay: NCI60 one-dose screen; type: cell-based, human; conditions: 10 μM
Procedure: as §1, §2, §3, §4, §5, §6, §7

T-47D = assay: NCI60 one-dose screen; type: cell-based, human; conditions: 10 μM
Procedure: as §1, §2, §3, §4, §5, §6, §7

UACC-62 = assay: NCI60 one-dose screen; type: cell-based, human; conditions: UACC-62, 10 μM
Procedure: as §1, §2, §3, §4, §5, §6, §7

[1] = test system: 60 human cancer cell lines; assay: NCI60 one-dose screen, overall mean; type: cell-based; conditions: mean over all 60 cell lines, read-out: Mean growth percent
Procedure: as §1, §2, §3, §4, §5, §6, §7

HOP-92 = assay: NCI60 one-dose screen; type: cell-based, human; conditions: HOP-92, 10 μM
Procedure: as §1, §2, §3, §4, §5, §6, §7

Row | SMILES | Growth percent (PC-3) | Growth percent (SR) | Growth percent (T-47D) | Growth percent (UACC-62) | activity at 10 µM [1] | Growth percent (HOP-92)
1 | O=c1cc(-c2ccccc2)oc2cc(OCCCC[P+](c3ccccc3)(c3ccccc3)c3ccccc3)cc(O)c12 [3a] | −87.34% | −39.83% | −62.52% | −59.51% | -74.3% | 
2 | Cc1ccc([P+](CCCCOc2cc(O)c3c(=O)cc(-c4ccccc4)oc3c2)(c2ccc(C)cc2)c2ccc(C)cc2)cc1 [3b] |  | −36.14% | −52.52% | −88.32% | -69.9% | 
3 | COc1ccc([P+](CCCCOc2cc(O)c3c(=O)cc(-c4ccccc4)oc3c2)(c2ccc(OC)cc2)c2ccc(OC)cc2)cc1 [3c] | −82.70% |  |  |  | -68.3% | −79.86%
4 | O=c1cc(-c2ccccc2)oc2cc(OCCCC[P+](c3ccc(F)cc3)(c3ccc(F)cc3)c3ccc(F)cc3)cc(O)c12 [3d] |  | −36.14% | −53.27% | −96.92% | -69.5% | 
5 | O=c1cc(-c2ccccc2)oc2cc(OCCCC[P+](C3CCCCC3)(C3CCCCC3)C3CCCCC3)cc(O)c12 [3e] | −70.81% |  |  |  | -76% | −75.86%
6 | COc1c(C)cc([P+](CCCCOc2cc(O)c3c(=O)cc(-c4ccccc4)oc3c2)(c2cc(C)c(OC)c(C)c2)c2cc(C)c(OC)c(C)c2)cc1C [3f] | −76.48% | 23.00% | −52.77% | −80.44% | -63.4% | −68.75%
7 | Cc1ccccc1[P+](CCCCOc1cc(O)c2c(=O)cc(-c3ccccc3)oc2c1)(c1ccccc1C)c1ccccc1C [3g] | −97.92% |  |  | −97.94% | -97.7% | −98.85%
8 | O=c1cc(-c2ccccc2)oc2cc(OCCCC[P+](c3ccccc3)(c3ccccc3)c3ccccn3)cc(O)c12 [3h] | −35.64% | 0.35% | −49.47% | −73.54% | -72.3% | −69.74%
9 | O=c1cc(-c2ccccc2)oc2cc(O)cc(O)c12 [compound 2, 5,7-dihydroxyflavone, reference compound] | 93.17% | 77.87% | 101.44% | 82.24% | 96.1% | 77.93%
